≈ marks a conversion by molar mass, not a printed value.
Columns and labels:
MRSA Pyk = target: T1, MRSA Pyk (Staphylococcus aureus, UniProt Q6GG09); experiment: MRSA pyruvate kinase (PK) activity, continuous LDH-coupled assay; assay type: biochemical, methicillin resistant S. aureus (MRSA252)
T1 construct: made in house; host or cells: E. coli BL-21 (DE3)
Method in brief: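 Activity monitored continuously as absorbance change at 340 nm from NADH oxidation via coupled lactate dehydrogenase, reactions started with 15 nM recombinant His-tagged PK (MRSA or human isoform) and run at 30° C for up to 5 min. Ki derived by varying inhibitor (0-400 nM) and PEP (2-20 mM) at 2 mM ADP; IC50 by four-parameter fitting.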

S. aureus (ATCC29213) = experiment: In vitro susceptibility, broth microdilution (MIC); assay type: cell-based; conditions: Staphylococcus aureus; S. aureus ATCC29213; 18-24 h, 37 C; read-out: Antimicrobial activity (MIC) S. aureus ATCC29213
Method in brief: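 CLSI 2-fold serial broth microdilution; K. pneumoniae C238 grown in L-broth, S. aureus ATCC 29213 in Mueller Hinton broth, plates incubated 18–24 h at 37 °C. MIC taken as lowest concentration giving complete growth inhibition by OD600 versus compound-free wells, background-subtracted.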

MRSA (ATCC BAA-1762) = experiment: In vitro susceptibility, broth microdilution (MIC); assay type: cell-based, methicillin resistant S. aureus; conditions: Staphylococcus aureus; MRSA ATCC BAA-1762; read-out: Antimicrobial activity (MIC) MRSA ATCC BAA1762
Text: (§1) Epidemic methicillin resistant S. aureus (MRSA) strain sequenced at the Sanger Centre (MRSA252, NRS71) was obtained from NARSA (Network on Antimicrobial Resistance in S. aureus). Methicillin sensitive S. aureus (ATCC 29213 and 25923), methicillin resistant S. aureus (ATCC BAA-1762), and Salmonella typhimurium (ATCC BAA-185) were obtained from ATCC, The Global Bioresource Center. Acinetobacter baumannii (ATCC 19606 and ATCC 17978), Klebsiella pneumonia (C238), vancomycin resistant Enterococci #2 (2010A) (VRE#2), MRSA (USA400, MW2) and Pseudomonas aeruginosa (PA0-1) were obtained from the laboratory of Dr B. B. Finlay at the University of British Columbia (Vancouver, Canada).
(§2) The antimicrobial activities of PK inhibitor candidates were determined using the 96-well microtiter standard 2-fold serial broth microdilution method as described by CLSI (formerly NCCLS) with the various gram-positive and gram-negative bacteria species mentioned above. Bacteria from a single colony were grown, overnight in either BHI Broth (VRE), mueller hinton broth (S. aureus 29213; MRSA USA400, A. baumannii 19606, MRSA BAA-1762) or L-broth (P. aeruginosa, S. typhimurium, K. pneumonia and A. baumannii 17978). Each compound was prepared in DMSO with 2-fold serial dilutions to give a final concentration of, 0.031 to 64 μg/ml. 10 μl of the compound solution was then added, in duplicate, to either, 190 μl of cation adjusted mueller hinton broth (CAMHB) or 190 μl CAMHB containing ˜2.5×10^5 CFU/ml of bacteria (final compound concentration 0.031 to 64 μg/ml). Culture plates were incubated for 18-24 h at 37° C., and optical density at 600 nm (OD600) was measured using a Benchmark Plus™ microplate spectrophotometer (Bio-Rad™). The absorbance control values for the series containing CAMHB and inhibitor were subtracted as background from the corresponding infected wells. Minimal inhibitory concentration (MIC) was defined as the lowest concentration of test compound leading to complete inhibition of cell growth in relation to compound-free control wells as determined by optical density. Vancomycin, methicillin and ciprofloxicin were used as reference compounds. All assays were run in triplicate or duplicate. Experiments were replicated at least twice to verify reproducibility using the above conditions.

VRE#2 (2010A) = experiment: In vitro susceptibility, broth microdilution (MIC); assay type: cell-based, vancomycin resistant Enterococci; conditions: VRE#2 (2010A); read-out: Antimicrobial activity (MIC) VRE#2
Text: as §1, §2

[1] = tested on: A. baumannii (ATCC 19606); experiment: In vitro susceptibility, broth microdilution (MIC); assay type: cell-based; conditions: Acinetobacter baumannii, ATCC19606; A. baumannii ATCC 19606 (values without asterisk); read-out: Antimicrobial activity (MIC) A. baumannii
Text: as §1, §2

T1 sequence (Q6GG09 whole entry): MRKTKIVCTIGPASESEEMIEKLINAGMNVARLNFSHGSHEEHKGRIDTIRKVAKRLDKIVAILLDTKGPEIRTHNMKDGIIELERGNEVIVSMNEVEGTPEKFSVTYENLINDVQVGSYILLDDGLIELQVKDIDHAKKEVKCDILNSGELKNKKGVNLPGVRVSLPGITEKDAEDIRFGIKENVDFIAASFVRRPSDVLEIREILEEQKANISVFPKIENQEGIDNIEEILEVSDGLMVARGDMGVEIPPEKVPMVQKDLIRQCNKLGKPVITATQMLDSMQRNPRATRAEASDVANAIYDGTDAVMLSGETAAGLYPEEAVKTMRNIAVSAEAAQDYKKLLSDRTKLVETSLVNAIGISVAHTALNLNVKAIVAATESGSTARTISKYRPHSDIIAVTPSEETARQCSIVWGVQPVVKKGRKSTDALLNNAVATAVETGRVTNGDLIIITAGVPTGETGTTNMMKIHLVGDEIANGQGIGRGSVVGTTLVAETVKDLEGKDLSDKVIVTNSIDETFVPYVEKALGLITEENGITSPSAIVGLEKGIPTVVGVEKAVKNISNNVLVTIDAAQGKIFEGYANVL

Row | Compound | IC50 (MRSA Pyk) | MIC (S. aureus (ATCC29213)) | MIC (MRSA (ATCC BAA-1762)) | MIC (VRE#2 (2010A)) | MIC [1]
1 | N.O=C(O)CON=C(c1c(-c2cc3cc(Cl)ccc3[nH]2)[nH]c2cc(Br)ccc12)C(F)(F)F (racemic) [Compound 219, Ammonium 2-(((1-(6-bromo-5′-chloro-1H,1′H-[2,2′-biindol]-3-yl)-2,2,2-trifluoroethylidene)amino)oxy)acetate] | < 0.1 µM | 8 µg/mL | 8 µg/mL | 4 µg/mL | > 64 µg/mL
2 | CN(C)CCON=C(c1c(-c2cc3cc(Cl)ccc3[nH]2)[nH]c2cc(Br)ccc12)C(F)(F)F (racemic) [Compound 220, 1-(6-Bromo-5′-chloro-1H,1′H-[2,2′-biindol]-3-yl)-2,2,2-trifluoroethan-1-one O-(2-(dimethylamino)ethyl)oxime] | < 0.1 µM | 2 µg/mL (≈ 3.79 µM) | 2 µg/mL (≈ 3.79 µM) | 2 µg/mL (≈ 3.79 µM) | > 64 µg/mL
3 | COC(=O)C[N+](C)(C)CCON=C(c1c(-c2cc3cc(Cl)ccc3[nH]2)[nH]c2cc(Br)ccc12)C(F)(F)F (racemic) [Compound 222, N-(2-(((1-(6-Bromo-5′-chloro-1H,1′H-[2,2′-biindol]-3-yl)-2,2,2-trifluoroethylidene)amino)oxy)ethyl)-2-methoxy-N,N-dimethyl-2-oxoethan-1-aminium Bromide] | < 0.1 µM | 2 µg/mL | 2 µg/mL | 4 µg/mL | 32 µg/mL
4 | CN1CCCN(CCCCNC(=O)c2c(-c3cc4cc(Cl)ccc4[nH]3)[nH]c3cc(Br)ccc23)CC1 [Compound 117, 6-Bromo-5′-chloro-N-(4-(4-methyl-1,4-diazepan-1-yl)butyl)-1H,1′H-[2,2′-biindole]-3-carboxamide] | < 0.1 µM | 8 µg/mL (≈ 14.4 µM) | 8 µg/mL (≈ 14.4 µM) | 8 µg/mL (≈ 14.4 µM) | 32 µg/mL (≈ 57.5 µM)
5 | CN1CCCN(CCCNC(=O)c2c(-c3cc4cc(Cl)ccc4[nH]3)[nH]c3cc(Br)ccc23)CC1 [Compound 118, 6-Bromo-5′-chloro-N-(3-(4-methyl-1,4-diazepan-1-yl)propyl)-1H,1′H-[2,2′-biindole]-3-carboxamide] | < 0.1 µM | 16 µg/mL (≈ 29.5 µM) | 16 µg/mL (≈ 29.5 µM) | 8 µg/mL (≈ 14.7 µM) | 32 µg/mL (≈ 58.9 µM)
6 | CN1CCCN(CCNC(=O)c2c(-c3cc4cc(Cl)ccc4[nH]3)[nH]c3cc(Br)ccc23)CC1 [Compound 119, 6-Bromo-5′-chloro-N-(2-(4-methyl-1,4-diazepan-1-yl)ethyl)-1H,1′H-[2,2′-biindole]-3-carboxamide] | < 0.1 µM | 16 µg/mL (≈ 30.3 µM) | 16 µg/mL (≈ 30.3 µM) | 8 µg/mL (≈ 15.1 µM) | 64 µg/mL (≈ 121 µM)
7 | COCCN1CCC(NCCNC(=O)c2c(-c3cc4cc(Cl)ccc4[nH]3)[nH]c3cc(Br)ccc23)CC1 [Compound 124, 6-Bromo-5′-chloro-N-(2-((1-(2-methoxyethyl)piperidin-4-yl)amino)ethyl)-1H,1′H-[2,2′-biindole]-3-carboxamide] | < 0.1 µM | 8 µg/mL (≈ 14 µM) | 8 µg/mL (≈ 14 µM) | 8 µg/mL (≈ 14 µM) | 16 µg/mL (≈ 27.9 µM)
8 | CN(C)CCNCCNC(=O)c1c(-c2cc3cc(Cl)ccc3[nH]2)[nH]c2cc(Br)ccc12 [Compound 126, 6-Bromo-5′-chloro-N-(2-((2-(dimethylamino)ethyl)amino)ethyl)-1H,1′H-[2,2′-biindole]-3-carboxamide] | < 0.1 µM | 16 µg/mL (≈ 31.8 µM) | 16 µg/mL (≈ 31.8 µM) | 8 µg/mL (≈ 15.9 µM) | 32 µg/mL (≈ 63.6 µM)
9 | COCCN1CCCN(CCNC(=O)c2c(-c3cc4cc(Cl)ccc4[nH]3)[nH]c3cc(Br)ccc23)CC1 [Compound 130, 6-bromo-5′-chloro-N-(2-(4-(2-methoxyethyl)-1,4-diazepan-1-yl)ethyl)-1H,1′H-2,2′-biindole-3-carboxamide] | < 0.1 µM | 16 µg/mL (≈ 27.9 µM) | 16 µg/mL (≈ 27.9 µM) | 16 µg/mL (≈ 27.9 µM) | > 64 µg/mL
10 | CNCCNC(=O)c1c(-c2cc3cc(Cl)ccc3[nH]2)[nH]c2cc(Br)ccc12 [Compound 136, 6-Bromo-5′-chloro-N-(2-(methylamino)ethyl)-1H,1′H-[2,2′-biindole]-3-carboxamide] | < 0.1 µM | 8 µg/mL (≈ 17.9 µM) | 8 µg/mL (≈ 17.9 µM) | 8 µg/mL (≈ 17.9 µM) | 16 µg/mL (≈ 35.9 µM)
11 | CCNCCNC(=O)c1c(-c2cc3cc(Cl)ccc3[nH]2)[nH]c2cc(Br)ccc12 [Compound 137, 6-Bromo-5′-chloro-N-(2-(ethylamino)ethyl)-1H,1′H-[2,2′-biindole]-3-carboxamide] | < 0.1 µM | 8 µg/mL (≈ 17.4 µM) | 8 µg/mL (≈ 17.4 µM) | 8 µg/mL (≈ 17.4 µM) | 32 µg/mL (≈ 69.6 µM)
12 | CC(C)(C)NCCNC(=O)c1c(-c2cc3cc(Cl)ccc3[nH]2)[nH]c2cc(Br)ccc12 [Compound 138, 6-Bromo-N-(2-(tert-butylamino)ethyl)-5′-chloro-1H,1′H-[2,2′-biindole]-3-carboxamide] | < 0.1 µM | 4 µg/mL (≈ 8.2 µM) | 8 µg/mL (≈ 16.4 µM) | 4 µg/mL (≈ 8.2 µM) | 64 µg/mL (≈ 131 µM)
13 | C[n+]1cccc(CNC(=O)c2c(-c3cc4cc(Cl)ccc4[nH]3)[nH]c3cc(Br)ccc23)c1 [Compound 148, 3-((6-bromo-5′-chloro-1H,1′H-[2,2′-biindole]-3-carboxamido)methyl)-1-methylpyridin-1-ium] | < 0.1 µM | 8 µg/mL | 16 µg/mL | 16 µg/mL | > 64 µg/mL
14 | O=C(Nc1ccc(Cl)cc1)Nc1nc2cc(Cl)ccc2s1 [Compound 172, 1-(5-chlorobenzo[d]thiazol-2-yl)-3-(4-chlorophenyl)urea] |  | 0.5 µg/mL (≈ 1.48 µM) | 0.5 µg/mL (≈ 1.48 µM) | 1 µg/mL (≈ 2.96 µM) | > 64 µg/mL
15 | CC(C)(C)NC(=O)Nc1nc2cc(Br)ccc2s1 [Compound 173, 1-(5-bromobenzo[d]thiazol-2-yl)-3-(tert-butyl)urea] |  | 16 µg/mL (≈ 48.7 µM) | 16 µg/mL (≈ 48.7 µM) | 32 µg/mL (≈ 97.5 µM) | > 64 µg/mL
16 | O=C(Nc1nc2cc(Br)ccc2s1)NC1CCCCCC1 [Compound 174, 1-(5-bromobenzo[d]thiazol-2-yl)-3-cycloheptylurea] |  | 1 µg/mL (≈ 2.72 µM) | 1 µg/mL (≈ 2.72 µM) | 1 µg/mL (≈ 2.72 µM) | > 64 µg/mL
17 | CCNC(=O)Nc1nc2cc(Br)ccc2s1 [Compound 176, 1-(5-bromobenzo[d]thiazol-2-yl)-3-ethylurea] |  | 8 µg/mL (≈ 26.7 µM) | 8 µg/mL (≈ 26.7 µM) | 16 µg/mL (≈ 53.3 µM) | > 64 µg/mL

Reference: patent publication US20180312493A1, “Antibiotic Compounds, Pharmaceutical Formulations Thereof And Methods And Uses Therefor” (Simon Fraser University, priority 2015, published 2018)
